Source: patent US20230309555A1, “ENVIRONMENTALLY RESPONSIVE TRANS-2-HEXENAL SUSTAINED-RELEASE AGENT, PREPARATION METHOD, AND APPLICATION” (ZHEJIANG UNIVERSITY, priority 2022, published 2023)

How the values were obtained:
Botrytis cinerea [1] = details: strawberries injected with 4 µL of 5×10^5 cfu/mL Botrytis cinerea; 6 g product at bottom of fresh-keeping box; room temperature
Procedure: Strawberries which were harvested at the same maturity, similar in size and without any infestation with insects or pets and damage, were selected. The strawberries were surface-sterilized by immersing in 0.5% (v/v) sodium hypochlorite for 5 min, then washed with sterile water to remove residues and dried at room temperature. The strawberries were randomly divided into 2 groups, each group including 33 strawberries, and then packed into a certain volume of fresh-keeping boxes (11 strawberries per box). In group a, 4 µL of 5×10^5cfu/mL of Botrytis cinerea solution was injected into the equatorial part of the strawberry. […] The experiment was conducted at room temperature and the strawberries were observed daily for decay, and the diameter of the lesions was measured daily.

Botrytis cinerea [2] = assay: growth of Botrytis cinerea on potato dextrose agar plate medium; assay type: cell-based; details: after 4 days culture at 25 °C
Procedure: Botrytis cinerea lesion with a diameter of 5 mm was inoculated on the center of a potato dextrose agar medium plate. The experiment was performed by seven groups as follows: • a. A BLANK group: nothing was added; • b. A GSH group: 1 g reductive glutathione was added to a lid of a Petri dish and the Petri dish was sealed immediately; • c. A GSH3h group: 1 g reductive glutathione was added to a lid of a Petri dish and then the Petri dish was sealed after being left open for 3 h at room temperature; • d. A Group […]: 20 μL trans-2-hexenal was added to a lid of a Petri dish and the Petri dish was sealed immediately; • e. An E-2-[…] group: 20 μL trans-2-hexenal was added to a lid of a Petri dish and the Petri dish was sealed after being left open for 3 h at room temperature; • f. […] After all groups were sealed completely, the groups were inverted and cultured at 25° C.The growth of Botrytis cinerea was checked regularly.

[3] = 0.05 g product, sealed vial 7 d; 4, 25, 45 °C; relative humidity 0%, 30%, 50%, 70%, 85%, 100%
Procedure: 20 mL glass vials were filled with 3 g of silica gel, 3 mL of saturated magnesium chloride solution, 3 mL of saturated potassium carbonate solution, 3 mL of saturated potassium iodide solution, 3 mL of saturated of potassium chloride solution, and 3 mL of pure water and then sealed until reaching relative humidity of 0%, 30%, 50%, 70%, 85% and 100%, respectively, and the mixed solution was balanced at 4° C. for 1 h. 0.05 g product was weighed and placed in a 2 mL glass vial, then transferred to the 20 mL glass vial and sealed for 7 d, and the release amount was measured every day.
20 mL glass vials were filled with 3 g of silica gel, 3 mL of saturated magnesium chloride solution, 3 mL of saturated potassium carbonate solution, 3 mL of saturated potassium iodide solution, 3 mL of saturated potassium chloride solution, and 3 mL of pure water until reaching relative humidity of 0%, 30%, 50%, 70%, 85% and 100%, respectively, and the mixed solution was balanced at 25° C. for 1 h. 0.05 g product was weighed in a 2 mL glass vial, then transferred to the 20 mL glass vial and sealed for 7 d, and the release amount was measured every day. […]

[4] = Petri dish sealed after being left open for 3 h at room temperature
[5] = Petri dish sealed immediately after addition

## CCCC(CC=O)SC[C@H](NC(=O)CC[C@H](N)C(=O)O)C(=O)NCC(=O)O (stereo partly shown)
Botrytis cinerea [1]
  bacterial inhibition (incidence of fruit gray mold): better than the control group
  growth diameters of the lesion of fruit: lower than that of the control group
Botrytis cinerea [2]; 1 g product
  difference in bacterial inhibition results between group sealed immediately and group sealed after being left open for 3 h: little difference
Botrytis cinerea [2]; [4]
  lesion diameter of Botrytis cinerea on plate medium: significantly smaller than that of the blank group
Botrytis cinerea [2]; [5]
  lesion diameter of Botrytis cinerea on plate medium: significantly smaller than that of the blank group
[3]
  release rate of trans-2-hexenal from the products: increased with the increase in relative humidity and temperature

## N[C@@H](CCC(=O)N[C@@H](CS)C(=O)NCC(=O)O)C(=O)O [reductive glutathione]
Botrytis cinerea [2]; [4]
  lesion diameter of Botrytis cinerea on plate medium: not significantly different from the blank group
Botrytis cinerea [2]; [5]
  lesion diameter of Botrytis cinerea on plate medium: not significantly different from the blank group

## CCC/C=C/C=O [trans-2-hexenal]
Botrytis cinerea [2]; [4]
  lesion diameter of Botrytis cinerea on plate medium: larger than that of the glutathione/trans-2-hexenal addition product group
Botrytis cinerea [2]; [5]
  lesion diameter of Botrytis cinerea on plate medium: significantly lower lesion diameter than other groups
